Experimental findings from patent publication US20250319139A1, “METHODS FOR TREATING NEUROINFLAMMATION” (University of Virginia Patent Foundation, priority 2021, published 2025) are described below.

What all share (format): in vivo, mouse
The test system of one series is C3. Briefly: C3 in the hippocampus by ELISA. The procedure:
(§1) IL-1β, IL-6, C3 and GDNF in the hippocampus were detected by using ELISA kits. For testing the IL-1β, IL-6 and GDNF, brain tissues were homogenized on ice in the RIPA buffer containing 25 mM Tris-HCl with pH 7.6, 150 mM NaCl, 1% sodium deoxycholate, 0.1% SDS and a protease inhibitor cocktail containing 10 mg/ml aproteinin, 5 mg/ml peptastin, 5 mg/ml leupetin and 1 mM phenylmethane sulfonylfluoride. For C3 testing, brain tissues were homogenized on ice in the PTR buffer (supplied in the kit). The supernatant was collected for ELISA detection after the homogenate was centrifuged at 13,000 g for 20 min at 4° C. and the protein concentration was determined by the BCA protein assay (Bio-Rad, Hemel Hempstead, Herts, UK). IL-1β, IL-6, C3 and GDNF in supernatant of brain were detected according to the manufacturer's instruction for ELISA, and the amount of them in each sample in the brain was normalized by its total protein content and was expressed as pg/mg protein.

Series [1] has as its system IL-6. Nature of the series: IL-6 in the hippocampus by ELISA. The conditions noted are these: young adult mice with exercise and surgery; intraperitoneal valeric acid. The procedure: as §1
The nature of series [2]: Plasma SCFA profiling by GC-MS. The conditions noted are these: mice with exercise and surgery, intraperitoneal valeric acid; blood 7 days after surgery.
The subject of the next series is IL-1β. Nature of the series: ELISA of IL-1β in the serum. The conditions noted are these: young mice, 100 mg/kg intraperitoneal 1 h before and 6 h after 120-min MCAO; 24 h after MCAO; vs saline. The procedure:
Mice were weighed and anesthetized with isoflurane at 24 h after MCAO. Blood samples were obtained from the right heart after thoracotomy. Blood was centrifuged (13,000 g, 4° C.) after it had been placed at 4° C. for 2 h for the collection of serum. After the collection of blood, mice were perfused with 4° C. saline for brain tissue harvesting. The cerebral cortex (anteroposterior: -1.5 to 2.5 mm, mediolateral: 1.0 to 3.0 mm) was dissected out. All dissection procedures were performed on ice. IL-10, IL-17, IL-1β and IL-6 in the serum and brain were detected by using ELISA kits (catalog number: M1000B, M1700, MLB00C and D6050, R&D SYSTEM, Inc., Minneapolis, MN, USA) as we described before. The brain tissues were homogenized on ice in the RIPA buffer containing 25 mM Tris-HCl with pH 7.6, 150 mM NaCl, 1% sodium deoxycholate and 0.1% SDS (catalog number: 89901, Thermo Scientific, Rockford, IL, USA) and a protease inhibitor cocktail containing 10 mg/ml aproteinin, 5 mg/ml […], 5 mg/ml leupetin and 1 mM phenylmethane sulfonylfluoride (catalog number: SRE0055, Sigma-Aldrich, St. Louis, MO, USA). The supernatant was collected for ELISA detection after being centrifuged for 20 min (13,000 g, 4° C.) and the protein concentration was determined by the BCA method. Cytokines in the serum and supernatant of brain were detected according to the manufacturer's instruction. […]
In general terms: An ELISA detects its analyte on a solid surface through an enzyme-linked reagent.

In series [3] the test system is IL-6. Nature of the series: ELISA of IL-6 in the serum. The conditions noted are these: young mice, 100 mg/kg intraperitoneal 1 h before and 6 h after 120-min MCAO; 24 h after MCAO; vs saline. The procedure: Mice were weighed and anesthetized with isoflurane at 24 h after MCAO. Blood samples were obtained from the right heart after thoracotomy. Blood was centrifuged (13,000 g, 4° C.) after it had been placed at 4° C. for 2 h for the collection of serum. After the collection of blood, mice were perfused with 4° C. saline for brain tissue harvesting. The cerebral cortex (anteroposterior: −1.5 to 2.5 mm, mediolateral: 1.0 to 3.0 mm) was dissected out. All dissection procedures were performed on ice.
IL-10, IL-17, IL-1β and IL-6 in the serum and brain were detected by using ELISA kits (catalog number: M1000B, M1700, MLB00C and D6050, R&D SYSTEM, Inc., Minneapolis, MN, USA) as we described before. The brain tissues were homogenized on ice in the RIPA buffer containing 25 mM Tris-HCl with pH 7.6, 150 mM NaCl, 1% sodium deoxycholate and 0.1% SDS (catalog number: 89901, Thermo Scientific, Rockford, IL, USA) and a protease inhibitor cocktail containing 10 mg/ml aproteinin, 5 mg/ml peptastin, 5 mg/ml leupetin and 1 mM phenylmethane sulfonylfluoride (catalog number: SRE0055, Sigma-Aldrich, St. Louis, MO, USA). The supernatant was collected for ELISA detection after being centrifuged for 20 min (13,000 g, 4° C.) and the protein concentration was determined by the BCA method. Cytokines in the serum and supernatant of brain were detected according to the manufacturer's instruction. […]

SMILES strings stand for the structures. “Also recorded” adds a separate entry of the source.

Take `CCCCC(=O)O` [valeric acid]: in the series on C3 (9-week old control mice, intraperitoneal valeric acid vs normal saline), the “C3 in the brain (hippocampus)” value is given as “increased”. For the same compound, the “exercise-induced reduction of C3 in the hippocampus” value in the series on C3 (young adult mice with exercise and surgery, intraperitoneal valeric acid) was “this reduction was blocked”. Also, the “exercise-induced reduction of IL-6 in the hippocampus” value in the series with IL-6 [1] is reported as “this reduction was blocked”. In series [2], the “butyric acid in the blood” value is reported as “attenuated this reduction”, the “hexanic acid in the blood” value was “attenuated this reduction” and the “valeric acid in the blood” value is “attenuated this reduction; also recorded: did not increase”. Besides, the “IL-1β in the blood” value in the series with IL-1β is given as “increased”. In addition, the “IL-6 in the blood” value in the series with IL-6 [3] was “increased”.
